Measurements reported in patent publication US4057545A, “Imidazole derivatives” (Nordmark-Werke GmbH Hamburg, priority 1975, dated 1977).

Tests used:
Candida albicans [1] = experiment: series dilution test in vitro, Cand. alb.; assay type: cell-based; set-up: key: .phi.: complete inhibition; (+): strong inhibition; +: moderate inhibition; ++: slight inhibition; +++: no inhibition; details: for inhibition of Cand. alb., 1st value: dilution 1: 10,000; for inhibition of Cand. alb., 2nd value: dilution 1: 100,000
Method: (§1) The new compounds and their salts are valuable agents for controlling fungi and yeasts and, in addition, are also active against several types of bacteria. To test the antimicrobial activity of the new compounds in vitro, they were tested in a series dilution test with dilutions of from 1:10,000 to 1:100,000 for their effectiveness against the germs Staphylococcus aureus, Trichophyton mentagrophytes and Candida albicans.

Staphylococcus aureus = experiment: series dilution test in vitro, Staph. aur.; assay type: cell-based; set-up: key: .phi.: complete inhibition; (+): strong inhibition; +: moderate inhibition; ++: slight inhibition; +++: no inhibition; details: for inhibition of Staph. aur., 1st value: dilution 1: 10,000; for inhibition of Staph. aur., 2nd value: dilution 1: 100,000
Method: as §1

[2] = test system: Trichophyton mentagrophytes; experiment: series dilution test in vitro, Trichoph.; assay type: cell-based; set-up: key: .phi.: complete inhibition; (+): strong inhibition; +: moderate inhibition; ++: slight inhibition; +++: no inhibition; details: for inhibition of Trichoph., 1st value: dilution 1: 10,000; for inhibition of Trichoph., 2nd value: dilution 1: 100,000
Method: as §1

LD50 (mice) = details: mouse, in vivo
[3] = mice; literature value; cited from earlier work
Candida albicans [4] = experiment: oral effectiveness in Candida-infected mice (survival); assay type: in vivo; details: 100 mg/kg twice daily for 7 days
Description: Accordingly, the compounds according to the invention are particularly suitable for the oral treatment of generalized infections by fungi and yeasts in human and veterinary medicine. Since the hitherto available medicaments are not yet satisfactory (Lit.: Infection 2, (1974) 95-107), they represent a valuable addition to pharmacology. In addition, they may be used equally effectively for the local treatment of surface infections and for the treatment of infections of the mucosa excessible to local treatment. Typical diseases of thiskind, for the treatment of which the compounds of the present invention are particular useful, are for instance generalized candidoses, candidoses of the lungs, of the skin or of the genitals or generalized trichophytoses (tineas) or trichophytoses of the skin, of the nails or of the hair.
In order to determine the oral effectiveness of the compounds, groups of 10 mice each weighing approximately 20 g were each treated i.m for 2 days with 50 mg/kg of hydrocortisone to ensure effective development of the infection. The mice were then each infected i.v. with 500,000 Candida albicans germs and thereafter were treated twice daily for 7 days with 100 mg/kg of the substance to be tested. In addition to an infected, but untreated control group, one group was treated with the reference substance Miconazole for comparison.

| SMILES | inhibition of Cand. alb., 1st value (Candida albicans [1]) | inhibition of Cand. alb., 2nd value (Candida albicans [1]) | inhibition of Staph. aur., 1st value (Staphylococcus aureus) | inhibition of Staph. aur., 2nd value (Staphylococcus aureus) | inhibition of Trichoph., 1st value [2] | inhibition of Trichoph., 2nd value [2] | LD50 (LD50 (mice)) [mg/kg] | LD50 (Lit.) [3] [mg/kg] | animals still alive on the last day of the treatment (Candida albicans [4]) [%] |
| --- | --- | --- | --- | --- | --- | --- | --- | --- | --- |
| Brc1ccc(C=C(Cn2ccnc2)c2ccc(Br)cc2)cc1 [n=0, R1=4-Br, R2=H, R3=4-Br, R4=H] | .phi. | ++ | .phi. | .phi. | .phi. | .phi. |  |  |  |
| Clc1ccc(C=C(Cn2ccnc2)c2ccccc2)c(Cl)c1 [D, 1-(2,4-dichlorophenyl)-2-phenyl-3-(imidazolyl-1)-propene-1-nitrate] |  |  |  |  |  |  | ~1000 |  |  |
| Clc1ccc(C=C2c3cc(Cl)ccc3CC2n2ccnc2)c(Cl)c1 (stereo not drawn) [n=1, R1=6-Cl, R2=H, R3=4-Cl, R4=2-Cl] | .phi. | +++ | .phi. | .phi. | .phi. | .phi. |  |  |  |
| Cc1ccc(C(=Cc2ccc(Cl)cc2Cl)Cn2ccnc2)cc1 [n=0, R1=4-CH3, R2=H, R3=2-Cl, R4=4-Cl] | .phi. | (+) | .phi. | .phi. | .phi. | .phi. |  |  |  |
| Clc1ccc(C=C2c3cc(Cl)ccc3CC2n2ccnc2)cc1 (stereo not drawn) [n=1, R1=6-Cl, R2=H, R3=4-Cl, R4=H] | .phi. | ++ | .phi. | .phi. | .phi. | .phi. |  |  |  |
| Clc1ccc(C=C2c3ccccc3CC2n2ccnc2)cc1 (stereo not drawn) [n=1, R1=H, R2=H, R3=H, R4=4-Cl] | .phi. | ++ | .phi. | .phi. | .phi. | .phi. |  |  |  |
| C(=C1c2ccccc2CCC1n1ccnc1)c1ccccc1 (stereo not drawn) [n=2, R1=H, R2=H, R3=H, R4=H] | .phi. | +++ | .phi. | .phi. | .phi. | .phi. |  |  |  |
| Clc1ccc(C=C(Cn2ccnc2)c2ccc(Cl)cc2)cc1 [n=0, R1=4-Cl, R2=H, R3=4-Cl, R4=H] | .phi. | (+ ) | .phi. | .phi. | .phi. | .phi. |  |  |  |
| Clc1ccc(C=C(Cn2ccnc2)c2ccc(Cl)cc2Cl)cc1 [F, 1-(4-chlorophenyl)-2-(2,4-dichlorophenyl)-3-(imidazolyl-1)-propene-1-nitrate] |  |  |  |  |  |  | ~2000 |  |  |
| Clc1ccc(C(=Cc2ccc(Cl)cc2Cl)Cn2ccnc2)cc1 [A, 1-(2,4-dichlorophenyl)-2-(4-chlorophenyl)-3-(imidazolyl-1)-propene-1-nitrate] |  |  |  |  |  |  | ~1000 |  |  |
| Clc1ccc(C=C2c3ccccc3CC2n2ccnc2)cc1Cl (stereo not drawn) [n=1, R1=H, R2=H, R3=3-Cl, R4=4-Cl] | .phi. | ++ | .phi. | .phi. | .phi. | .phi. |  |  |  |
| Clc1ccc(C=C(Cn2ccnc2)c2ccc(Cl)cc2)cc1 [B, 1-(4-chlorophenyl)-2-(4-chlorophenyl)-3-(imidazolyl-1)-propene-1-nitrate] |  |  |  |  |  |  | ~1000 |  |  |
| COc1ccc(C(=Cc2ccccc2)Cn2ccnc2)cc1 [n=0, R1=H, R2=4-OCH3, R3=H, R4=H] | .phi. | +++ | .phi. | .phi. | .phi. | .phi. |  |  |  |
| Clc1ccc(C(=Cc2ccccc2)Cn2ccnc2)cc1 [C, 1-phenyl-2-(4-chlorophenyl)-3-(imidazolyl-1)-propene-1-nitrate] |  |  |  |  |  |  | ~1000 |  |  |
| Clc1ccc(C(=Cc2ccc(Br)cc2)Cn2ccnc2)c(Cl)c1 [n=0, R1=4-Cl, R2=2-Cl, R3=4-Br, R4=H] | .phi. | ++ | .phi. | .phi. | .phi. | .phi. |  |  |  |
| Clc1ccc(C=C2c3ccccc3CCC2n2ccnc2)cc1 (stereo not drawn) [n=2, R1=H, R2=H, R3=H, R4=4-Cl] | .phi. | ++ | .phi. | .phi. | .phi. | .phi. |  |  |  |
| Clc1ccc(C=C(Cn2ccnc2)c2ccc(Cl)cc2Cl)c(Cl)c1 [E, 1,2-bis-(2,4-dichlorophenyl)-3-(imidazolyl-1)-propene-1-nitrate] |  |  |  |  |  |  | ~2000 |  |  |
| Clc1ccc(C(=Cc2ccc(Br)cc2)Cn2ccnc2)cc1 [n=0, R1=4-Cl, R2=H, R3=4-Br, R4=H] | .phi. | ++ | .phi. | .phi. | .phi. | .phi. |  |  |  |
| Clc1ccc(COC(Cn2ccnc2)c2ccc(Cl)cc2Cl)c(Cl)c1 (stereo not drawn) [Miconazole, 1-[2,4-dichloro-β-(2,4,-dichlorobenzyloxy)-phenethyl]-imidazole nitrate] |  |  |  |  |  |  |  | 578 | 20 |
| Clc1ccc(C(=Cc2ccc(Br)cc2)Cn2ccnc2)c(Cl)c1 [G, 1-(4-bromophenyl)-2-(2,4-dichlorophenyl)-3-(imidazolyl-1)-propene-1-nitrate] |  |  |  |  |  |  | ~1000 |  |  |
| Clc1ccc(C(=Cc2ccc(Cl)c(Cl)c2)Cn2ccnc2)c(Cl)c1 [n=0, R1=4-Cl, R2=2-Cl, R3=4-Cl, R4=3-Cl] | .phi. | ++ | .phi. | .phi. | .phi. | .phi. |  |  |  |
